Structures are written as SMILES. Where “and” joins values, the source holds several entries; their conditions need not be identical. Identical values can stand only once.

One series relates to HPAC. Nature of the series: HPAC cell growth inhibition. In kind it is cell-based. To be noted: Homo sapiens, 72 h, 3 days, CCK-8, vs DMSO, read-out: IC50, HPAC (Pancreas). The protocol: (§1) Cell viability was determined by Cell Counting Kit-8 (CCK-8, Dojindo, Kumamoto, Japan) as described previously (31). Cell viability was calculated relative to the DMSO control. Cell cycle profile was analyzed by flow cytometry as described previously (32).

The nature of series [1]: Pharmacokinetics (serum levels) after IP dosing. The format is in vivo, mice. To be noted: 1.16 mg/kg. The text has this: This may be due to slow metabolism of the compound. […] Thus, in some embodiments, the compositions of the invention can be administered is a dosage regimen that is highly convenient, e.g., once weekly instead of daily. The compositions of the present invention can be administered every 1, 2, 3, 4, 5, 6, or 7 days, or may be administered otherwise.

The next series concerns CFpac-1. Nature of the series: CFpac-1 cell growth inhibition. To be noted: Homo sapiens, CFPAC-1, 72 h; 3 days, CCK-8, vs DMSO; read-out: IC50, CFpac-1 (Pancreas). In kind it is cell-based, human. The protocol: In FIG. 9-24 in vitro IC50 values for the GGTase I activity are reported. In Tables 7-15 in cell GI50 values for the growth inhibition of a variety of cancer cell lines (e.g., Jurkat, K562, MDA-MB-231, BT474, MCF7, MiaPaCa2, Aspc-1, Panc-1, Capan-2, CFpac-1, and MCF10a) are reported.
as §1

Series [2] concerns H-Ras farnesylation in NIH3T3 cells. Nature of the series: H-Ras mobility shift immunoblot in NIH3T3 cells. The format is cell-based. To be noted: 48 hours. As to the method:
K562 cells were treated with modified compounds for 72 hours and then cell number was counted. IC50 values of cell viability relative to the DMSO were measured. […] Data represent the mean+/−S.D. of two measurements from two independent experiments. *, P<0.05 compared with the value for DMSO. […] Whole cell lysates from cells treated with DMSO, P5-H6, P61-A6, GGTI (GGTI-298), FTI (BMS-225975) or RabGGTI (P49-F6) for 48 hours were prepared and processed for immunoblot analysis using antibody against unprenylated form of Rap1 (C: upper panel), Total-Rap1 (C: middle panel), H-Ras (D: upper panel), Rab5b (E: upper panel) or actin (C, D, and E: lower panel). The immunoblots shown represent two independent experiments for each treatment.
This was examined by using a farnesylated protein H-Ras.
Background: A western blot detects proteins with antibodies after separation by electrophoresis.

For the compound `Cc1ccccc1S(=O)(=O)N1C(c2ccc(Cl)cc2)C(C(=O)NC(Cc2ccccc2)C(N)=O)=CC1C(C)(C)C` (stereo not shown) [P61-A6], the 50% inhibitory concentration (IC50) in the series with HPAC amounted to 3.9 µM. This compound showed a Clearance in series [1] (IP) of 1.04 mL/h. In addition, in series [1] (mouse, serum, ip), the Cmax was 13000 ng/mL and 22.4 µM; the half-life is 16.9 h. In series [1] (mouse, serum, ip, read-out: AUC0-4 h), the AUC(0-t) was 22.2 µg·h/mL. The IC50 with CFpac-1 came to 6.3 µM. Besides, the “mobility shift of H-Ras (protein farnesylation)” value in series [2] is “no such mobility shift”.

What is called IC50 is the concentration at which inhibition is half-maximal. As usually defined, the Cmax is the highest concentration seen after dosing. As usually defined, the half-life is the time in which the quantity being followed falls by half. High values mean slow loss, low ones fast loss.

These data come from US8815935B2, “Inhibitors of protein prenyltransferases” (The Regents of the University of California, priority 2008, dated 2014).
